# Legend:
# Type in all cases: in vivo
# [1] = test system: Erysiphe graminis; test: Powdery Mildew of Wheat (Erysiphe graminis--ERYSGT); conditions: wheat (cultivar Monon), 100 ppm spray to run off, inoculated after 24 hours; for pest or weed control at 100 ppm: Blumeria graminis, 1DP, read-out: control of plant disease, ERYSGT 1DP
# Description: (§1) Compound Formulation: Compound formulation was accomplished by dissolving technical materials in acetone, with serial dilutions then made in acetone to obtain desired rates. Final treatment volumes were obtained by adding nine volumes 0.05% aqueous Tween-20 or Triton X-100, depending upon the pathogen.
# Powdery Mildew of Wheat (Erysiphe graminis--ERYSGT): Wheat (cultivar Monon) was grown in a soilless peat-based potting mixture (Metromix) until the seedlings were 1-2 leaf (BBCH 12). These plants were then sprayed to run off with the test compound at a rate of 100 ppm. After 24 hours the test plants were inoculated with Erysiphe graminis by dusting spores from stock plants onto the test plants. The plants were then transferred to the greenhouse until disease developed on the untreated control plants.
# (§2) the following table presents the activity of typical compounds of the present invention when evaluated in these experiments. The effectiveness of the test compounds in controlling disease was rated using the following scale: […]
# [2] = test system: Leptosphaeria nodorum; test: Glume blotch of wheat (Leptosphaeria nodorum--LEPTNO); conditions: wheat (cultivar Monon), 100 ppm spray to run off, inoculated after 24 hours; for pest or weed control at 100 ppm: Parastagonospora nodorum, 1DP, read-out: control of plant disease, LEPTNO 1DP
# Description: as §1
# (§3) Glume blotch of wheat (Leptosphaeria nodorum--LEPTNO): Wheat (cultivar Monon) was grown from seed in a soilless peat-based potting mixture (Metromix) until the seedlings were 1-2 leaf (BBCH 12). These plants were then sprayed to run off with the test compound at a rate of 100 ppm. After 24 hours the test plants were inoculated with an aqueous spore suspension of Leptosphaeria nodorum. The plants were then transferred to the greenhouse until disease developed on the untreated control plants.
# as §2
# [3] = test system: Phytophthora infestans; test: whole plant or invertebrate; conditions: for pest or weed control at 100 ppm: Phytophthora infestans, 24 h, read-out: control of plant disease, PHYTIN 1DP; for control of plant disease, PHYTIN 1DP: tomatoes (cultivar Rutgers), 100 ppm spray to run off, inoculated after 24 hours
# [4] = test system: Puccinia recondita; test: Brown rust (Puccinia recondita--PUCCRT); conditions: wheat (cultivar Monon), 100 ppm spray to run off, inoculated after 24 hours; for pest or weed control at 100 ppm: Puccinia recondita, 1DP, read-out: control of plant disease, PUCCRT 1DP
# Description: as §1
# as §3, with “Brown rust (Puccinia recondita--PUCCRT):” for “Glume blotch of wheat (Leptosphaeria nodorum--LEPTNO):”, “[…]).” for “1-2 leaf (BBCH 12).”, “Puccinia recondita.” for “Leptosphaeria nodorum.”
# as §2
SMILES,pest or weed control at 100 ppm [1] [%],pest or weed control at 100 ppm [2] [%],pest or weed control at 100 ppm [3] [%],pest or weed control at 100 ppm [4] [%],"control of plant disease, ERYSGT 1DP [1]","control of plant disease, LEPTNO 1DP [2]","control of plant disease, PHYTIN 1DP [3]","control of plant disease, PUCCRT 1DP [4]"
CNC(=O)C(=NOC)c1ccccc1COc1ccc(-c2cc(C(C)C)on2)cn1 [Example 42],75 to 100,0 to 24,75 to 100,75 to 100,–,–,–,–
CNC(=O)C(=NOC)c1ccccc1COc1ccc(Cl)c(-c2nc(C(C)(C)C)no2)n1 [Example 82],75 to 100,75 to 100,75 to 100,75 to 100,–,–,–,–
CCc1nnc(-c2cnc(OCc3ccccc3C(=NOC)C(=O)NC)c(Cl)c2)o1 [Example 5],75 to 100,75 to 100,75 to 100,75 to 100,–,–,–,–
CCc1nc(-c2cnc(OCc3ccccc3C(=NOC)C(=O)NC)c(Cl)c2)no1 [Example 36],75 to 100,75 to 100,0 to 24,75 to 100,–,–,–,–
COC=C(C(=O)OC)c1ccccc1COc1ncc(-c2noc(C(C)(C)C)n2)cc1Cl [Example 98],75 to 100,75 to 100,0 to 24,75 to 100,–,–,–,–
CCc1noc(-c2cccc(OCc3ccccc3C(=NOC)C(=O)NC)n2)n1 [Example 85],–,–,–,–,+ (25-74% control of plant disease),- (0-24% control of plant disease),- (0-24% control of plant disease),++ (75-100% control of plant disease)
CNC(=O)C(=NOC)c1ccccc1COc1cccc(-c2nc(C(F)(F)F)no2)n1 [Example 89],0 to 24,0 to 24,75 to 100,75 to 100,–,–,–,–
CNC(=O)C(=NOC)c1ccccc1COc1ccc(-c2cc(-c3ccccc3)on2)cn1 [Example 44],–,–,0 to 24,–,–,–,–,–
CNC(=O)C(=NOC)c1ccccc1COc1ccc(-c2noc(C(F)(F)F)n2)cn1 [Example 16],75 to 100,0 to 24,0 to 24,75 to 100,–,–,–,–
CNC(=O)C(=NOC)c1ccccc1COc1ncc(-c2noc(C34CC5CC(CC(C5)C3)C4)n2)cc1Cl [Example 15],75 to 100,0 to 24,75 to 100,75 to 100,–,–,–,–
CNC(=O)C(=NOC)c1cccc(F)c1COc1ncc(-c2noc(C(F)(F)F)n2)cc1Cl [Example 32],–,–,–,–,++ (75-100% control of plant disease),+ (25-74% control of plant disease),- (0-24% control of plant disease),++ (75-100% control of plant disease)
CNC(=O)C(=NOC)c1ccccc1COc1ccc(-c2nc(C(C)(C)C)no2)cn1 [Example 65],75 to 100,75 to 100,0 to 24,75 to 100,–,–,–,–
CNC(=O)C(=NOC)c1ccc(C)cc1COc1ncc(-c2noc(C(F)(F)F)n2)cc1Cl [Example 33],–,–,–,–,++ (75-100% control of plant disease),++ (75-100% control of plant disease),++ (75-100% control of plant disease),++ (75-100% control of plant disease)
CCc1noc(-c2cnc(OCc3ccccc3C(=NOC)C(=O)NC)c(Cl)c2)n1 [Example 54],75 to 100,75 to 100,75 to 100,75 to 100,–,–,–,–
CNC(=O)C(=NOC)c1ccccc1COc1ncc(-c2nc(CSC)no2)cc1Cl [Example 62],75 to 100,75 to 100,–,75 to 100,–,–,–,–
CNC(=O)C(=NOC)c1ccccc1COc1ncc(-c2nc(-c3ccccc3)no2)cc1Cl [Example 48],75 to 100,25 to 74,75 to 100,75 to 100,–,–,–,–
CNC(=O)C(=NOC)c1ccccc1COc1ccc(-c2noc(-c3ccccc3)n2)cn1 [Example 12],75 to 100,75 to 100,75 to 100,75 to 100,–,–,–,–

SMILES,pest or weed control at 100 ppm [1] [%],pest or weed control at 100 ppm [2] [%],pest or weed control at 100 ppm [3] [%],pest or weed control at 100 ppm [4] [%],"control of plant disease, ERYSGT 1DP [1]","control of plant disease, LEPTNO 1DP [2]","control of plant disease, PHYTIN 1DP [3]","control of plant disease, PUCCRT 1DP [4]"
"CNC(=O)C(=NOC)c1ccccc1COc1ncc(-c2nc(C)no2)cc1Cl [Example 49, Benzeneacetamide, 2-[[[3-chloro-5-(3-methyl-1,2,4-oxadiazol-5-yl)-2-pyridinyl]oxy]methyl]-α-(methoxyimino)-N-methyl-]",75 to 100,75 to 100,0 to 24,75 to 100,–,–,–,–
CCCc1noc(-c2cnc(OCc3ccccc3C(=NOC)C(=O)NC)c(Cl)c2)n1 [Example 78],75 to 100,75 to 100,0 to 24,75 to 100,–,–,–,–
"CNC(=O)C(=NOC)c1ccccc1COc1ncc(-c2nnc(C3CC3)o2)cc1Cl [Example 1, Benzeneacetamide, 2-[[[3-chloro-5-(5-cyclopropyl-1,3,4-oxadiazol-2-yl)-2-pyridinyl]oxy]methyl]-α-(methoxyimino)-N-methyl-]",0 to 24,0 to 24,75 to 100,75 to 100,–,–,–,–
CCc1noc(-c2cccc(OCc3ccccc3C(=NOC)C(=O)NC)n2)n1 [Example 83],25 to 74,75 to 100,75 to 100,75 to 100,–,–,–,–
CNC(=O)C(=NOC)c1ccccc1COc1ncc(-c2nnc(-c3ccccc3)o2)cc1Cl [Example 2],25 to 74,75 to 100,75 to 100,75 to 100,–,–,–,–
CNC(=O)C(=NOC)c1cccc(F)c1COc1cccc(-c2nc(C(C)(C)C)no2)n1 [Example 88],–,–,–,–,++ (75-100% control of plant disease),++ (75-100% control of plant disease),++ (75-100% control of plant disease),++ (75-100% control of plant disease)
CNC(=O)C(=NOC)c1ccccc1COc1ncc(-c2cc(C(C)(C)C)on2)cc1Cl [Example 41],75 to 100,75 to 100,0 to 24,75 to 100,–,–,–,–
COC=C(C(=O)OC)c1ccccc1COc1ncc(-c2nc(C(C)(C)C)no2)cc1Cl [Example 100],25 to 74,25 to 74,75 to 100,75 to 100,–,–,–,–
CNC(=O)C(=NOC)c1ccccc1COc1ncc(-c2nc(CSc3ccccc3)no2)cc1Cl [Example 58],75 to 100,75 to 100,–,75 to 100,–,–,–,–
CNC(=O)C(=NOC)c1ccccc1COc1ccc(-c2cc(C)on2)cn1 [Example 45],–,–,25 to 74,–,–,–,–,–
CCc1noc(-c2ccc(OCc3ccccc3C(=NOC)C(=O)NC)nc2)n1 [Example 63],75 to 100,25 to 74,–,75 to 100,–,–,–,–
CNC(=O)C(=NOC)c1ccccc1COc1ncc(-c2nc(COc3ccccc3)no2)cc1Cl [Example 57],75 to 100,25 to 74,–,75 to 100,–,–,–,–
CNC(=O)C(=NOC)c1ccccc1COc1ncc(-c2nc(C(C)C)no2)cc1Cl [Example 59],75 to 100,75 to 100,–,75 to 100,–,–,–,–
CNC(=O)C(=NOC)c1ccccc1COc1ncc(-c2nc(C(C)(C)C)no2)cc1C [Example 60],75 to 100,75 to 100,–,75 to 100,–,–,–,–
CNC(=O)C(=NOC)c1ccccc1COc1ncc(-c2cc(C)no2)cc1Cl [Example 79],–,–,0 to 24,–,–,–,–,–
CNC(=O)C(=NOC)c1ccccc1COc1ncc(-c2nc(COC)no2)cc1Cl [Example 61],75 to 100,0 to 24,–,75 to 100,–,–,–,–
CCc1cc(-c2ccc(OCc3ccccc3C(=NOC)C(=O)NC)nc2)on1 [Example 80],–,–,0 to 24,–,–,–,–,–
